Where a name gives a salt, the structure may show the parent alone.
Columns and labels:
[1] = parameters: method as in PMID 9792207; settings: higher doses, four h post intraperitoneal administration; cited from earlier work
P. mirabilis [2] = assay: In vitro glass “bladder” model of catheter encrustation; format: cell-based, Proteus mirabilis; settings: for crystalline biofilm formation / Magnesium and phosphorus precipitation on catheter segments (ICP-OES) / catheter biofilm biomass (crystal violet) vs untreated P. mirabilis: 24 h; for crystalline biofilm formation: alone: 1.25 mM AHA, 12.5 mM histamine, 12.5 mM 4-imidazole acetate; for P. mirabilis CFUs in effluent over time / urease-mediated pH increase: tested individually; for urease-mediated pH increase: dose response
Protocol: A Foley catheter is inserted aseptically into the vessel through an opening at the base, the balloon is inflated, and the catheter is attached to a catheter drainage bag (Fig. 7A). The “bladder” is supplied with sterile AUM at a physiologically relevant flow rate via peristaltic pump from a media reservoir, the “kidney” (Fig. 7A). An initial bacterial inoculum of 10^8 CFU of P. mirabilis was added to the AUM in the “bladder” inner chamber to model robust bacteriuria, followed by initiation of flow (Fig. 7B). The performance of urease-dampening metabolites was evaluated as a reduction in 1) effluent AUM pH over the 24 h study period, and 2) crystalline biofilm formation and ion precipitation on catheter segments 24 h post inoculation. Urease-dampening metabolites and AHA were introduced into the system by direct dissolution into the AUM reservoirs. For each study, both positive (untreated P. mirabilis) and negative (untreated P. mirabilis urease negative mutant) controls were included. Effluent urine samples were collected at 0, 3, 6, 9, 12 and 24 h post inoculation. This preclinical model of catheter encrustation was modified to assess whether prophylactic administration of urease-dampening metabolites increases efficacy of antimicrobials against catheter biofilms, as outlined in Fig. 9A. Each experiment was performed in triplicate. Full details of experimental set up, sample collection, and processing are provided below and in Supplementary Materials.
A previously described glass “bladder” model was used, in which a 500 mL water-jacketed glass vessel is maintained at 37 °C via a circulating water bath, a Foley catheter is inserted and inflated, and artificial urine medium (AUM) is supplied into the “bladder” at a constant flow rate (0.75-1.0 mL/min) through a peristaltic pump[55],[56]. For consistency with the in vitro urease activity assays and the physiologic range of urea in healthy human urine, AUM was supplemented with 500 mM urea[57]. Urease-dampening metabolites of interest were directly dissolved in AUM 500 mM urea, adjusted to a pH of 5.8, and filter sterilized via a 0.2μm filter. “Bladders” were inoculated with 10^8 CFUs of P. mirabilis. Samples were collected from the catheter port at 0, 3, 6, 9, 12, and 24 hours to monitor pH and bacterial CFUs. Catheters segments were processed for CFUs, crystal violet staining of biofilm biomass, and ion composition at 24 h. Full details are provided in the Supplementary Methods.
236 and the segments were air dried for 15 min. Catheter segments were stained with 1.0 ml 0.1%
237 crystal violet for 10 min, washed by gentle dunking in 1X phosphate-buffered saline (PBS) to
238 remove excess stain, and solubilized in a microcentrifuge tube containing 750μL of 1% SDS
239 95% ethanol and vortexed for 5 minutes. Crystal violet absorbance (OD570) was measured in a
240 BioTek Synergy H1 microplate reader and blanked using cell-free control wells for each biofilm
243 Catheter segment biofilm viability. Catheter segments were washed by gentle dunking in 1X
244 phosphate-buffered saline (PBS) to remove any remaining planktonic bacteria and residual AUM
245 from the catheter lumen. Catheter segments were then placed in a microcentrifuge tube
246 containing 1mL of 1X PBS and vortexed for 5 minutes to solubilize the biofilm. Samples
247 underwent serial 10-fold dilutions and were spiral plated (Eddy Jet 2; Neutec Group Inc.,
248 Farmingdale, NY) onto low-salt LB agar for enumeration of CFU using a ProtoCOL 3 automated
249 colony counter (Synbiosis).
251 Catheter segment elemental composition. Catheter segments were placed in a microcentrifuge

[3] = Buffering capacity assay (NaOH titration, phenol red); format: physicochemical; settings: high concentrations of metabolite in potassium phosphate buffer with phenol red
Protocol: Known concentrations of sodium hydroxide were added to each well of a 96 well plate in combination with candidate dampening metabolite of interest buffered 1:10 in potassium phosphate buffer pH7. 0.01% phenol red was added to each well, and absorbance (OD562) was measured in a Synergy H1 plate reader (BioTek).

P. mirabilis [4] = assay: Growth and viability of P. mirabilis incubated in dampening metabolites; format: cell-based, Proteus mirabilis
Protocol: 345 Supplementary Figure 5. Growth and viability of P. mirabilis incubated in dampening
346 metabolites. (A-B) P. mirabilis was cultured for ~18 hours in LB broth, then diluted 1:100 into
347 fresh LB broth with (A) the highest concentration of each dampening metabolites that was tested
348 for urease-dampening activity or (B) serial dilutions of D-imidazole lactate. Bacterial
349 suspensions were incubated at 37 °C with double-orbital shaking, and OD600 was measured
350 every 15 minutes for 18 hours. Representative growth curves (A-B) show means and standard
351 deviations from three technical replicates. (C-E) Viability of P. mirabilis incubated in serial
352 dilutions of D-imidazole lactate. Overnight cultures were subcultured to mid log phase, washed
353 in potassium phosphate buffer, and diluted 1:10 in either (C,D) potassium phosphate buffer or
354 human urine (E) with and without D-imidazole lactate. Samples were incubated at 37°C with
(§1) (1 picture or pasted object on this page, not shown here)

P. stuartii BE2467 = assay: Growth and viability of P. stuartii in dampening metabolites; format: cell-based, Providencia stuartii
Protocol: 478 Supplementary Figure 20. Growth of M. morganii, P. stuartii and UTI MRSA incubated in
479 dampening metabolites. M. morganii TA43 (A,D,G), P. stuartii BE2467(B,E,H), UTI MRSA
480 (C,F,I) were incubated in urease dampening metabolites to assess impact on growth. Bacteria
481 were cultured for ~18 hours in LB (Mm and Ps) or BHI (MRSA) broth, then diluted 1:100 into
482 fresh broth with (A-C) the highest concentrations of dampening metabolites assessed for urease
483 inhibition or (D-F) serial dilutions of D-imidazole lactate. Bacterial suspensions were incubated
484 at 37 °C with double-orbital shaking, and OD600 was measured every 15 minutes for 18 hours.
485 Error bars represent mean ± standard deviation (SD) from at least 3 technical replicates, and
486 graphs are representative of 3 independent biologic experiments. (G-I) Viability of incubated in
487 Mm, Ps or MRSA incubated in serial dilutions of D-imidazole lactate. Overnight cultures were
as §1
488 subcultured to mid log phase, washed in potassium phosphate buffer, and diluted 1:10 in
489 potassium phosphate buffer with and without D-imidazole lactate. Samples (n=3) were incubated
490 at 37°C with aeration for one hour then plated and enumerated for colony forming units (CFU).

P. stuartii urease = assay: Urease activity assay, whole cell P. stuartii BE2467; format: cell-based, Providencia stuartii
Protocol: Urease activity was measured as described previously in triplicate with at least three biological replicates[21]. Briefly, bacteria were cultured for ~18 h in LB broth, concentrated to an OD600 of 4, washed once in saline, and diluted (1:10 for P. mirabilis and 1:50 for P. stuartii and M. morganii) into candidate dampening metabolites in potassium phosphate buffer or human urine pH7 and supplemented with 500 mM urea and 0.01% phenol red. Bacterial suspensions were distributed into a 96-well plate, incubated at 37 °C with double-orbital shaking in a Synergy H1 plate reader (BioTek), and absorbance (OD562) was measured every 60 seconds for 180 minutes. Isogenic urease mutants (Supplementary Data 1) served as negative controls for P. mirabilis and P. stuartii and a vehicle control served as a negative control for M. morganii.

[5] = alone: 5 mM AHA, 25 mM histamine, 25 mM 4-imidazole acetate
[6] = alone: 5 mM AHA, 25 mM histamine, 25 mM 4-imidazole acetate, nucleation point ~ pH 8

Compound	effects in rats [1]	crystalline biofilm formation (P. mirabilis [2])	Magnesium and phosphorus precipitation on catheter segments (ICP-OES) (P. mirabilis [2]; [5])	catheter biofilm biomass (crystal violet) vs untreated P. mirabilis (P. mirabilis [2]; [5])	pH of AUM collected from “bladders” over 24 h (P. mirabilis [2]; alone, lower concentrations)	pH of AUM collected from “bladders” over 24 h (P. mirabilis [2]; [6])	P. mirabilis CFUs in effluent over time (P. mirabilis [2])	urease-mediated pH increase (P. mirabilis [2])	buffering capacity: absorbance (OD562) across NaOH concentrations [3]	Growth of P. mirabilis in LB broth (P. mirabilis [4]; LB broth, 18 hours, OD600)	antimicrobial activity against P. mirabilis (P. mirabilis [4]; incubation in human urine)	antimicrobial activity against P. mirabilis (P. mirabilis [4]; incubation in potassium phosphate)	growth of P. stuartii (P. stuartii BE2467; LB broth)	antimicrobial activity against P. stuartii BE2467 (P. stuartii BE2467; incubation in potassium phosphate, CFU)	urease activity in P. stuartii (P. stuartii urease)
Cl.O=C(O)Cc1cnc[nH]1 [4-imidazole acetate, 2-(1H-Imidazol-5-yl)acetic acid hydrochloride]	seizures	no impact on crystalline biofilm formation	reduced, although the reduction was not statistically significant	significantly reduced biofilm biomass	failed to restrict pH	never surpassed the nucleation point	no meaningful differences between CFUs over time	perturbed urease-mediated pH increase in a dose-dependent manner	consistent reduction in absorbance compared to the control	–	–	–	–	–	–
O.O=C(O)[C@H](O)Cc1cnc[nH]1 [D-imidazole lactate, D-imidazolelactic acid hydrate]	–	–	–	–	–	–	–	–	–	perturbed	less-pronounced activity	robust antimicrobial activity	perturbed growth	robust antimicrobial activity	most potent urease inhibition
NCCc1c[nH]cn1 [Histamine, histamine dihydrochloride]	–	no impact on crystalline biofilm formation	reduced, although the reduction was not statistically significant	significantly reduced biofilm biomass	failed to restrict pH	never surpassed the nucleation point	no meaningful differences between CFUs over time	perturbed urease-mediated pH increase in a dose-dependent manner	–	–	–	–	–	–	–

From paper PMC12583827, “Harnessing microbial-derived metabolites in the urinary tract to prevent infection induced catheter encrustation” (Nature Communications, 2025)
